{"source": "patent US20260240826A1", "about": "“COMPOSITIONS FOR PD-L1 INHIBITION AND METHODS OF USE THEREOF” (ARIZONA BOARD OF REGENTS ON BEHALF OF THE UNIVERSITY OF …, priority 2023, published 2026)", "key": {"[1]": {"test_system": "AP-1 luciferase reporter HaCaT cells", "assay": "AP-1 reporter luciferase assay in HaCaT keratinocytes", "type": "cell-based, human", "settings": "harvest 12 hr after UVB", "method": "HaCaT cells stably transfected with the TRE-driven luciferase plasmid (“AP-1 luciferase” cells) were seeded in 6-well plates, grown to 70% confluence and serum starved overnight to reduce background signaling. Cells were pretreated with BMS-202 or vehicle (DMSO) for 1 hr, then washed twice with PBS prior to exposure to […]. Cells were then washed once more with PBS before being placed into fresh starvation media with vehicle or BMS-202 until harvest 12 hr later. Cells were lysed in Promega's Cell Culture Lysis Buffer (1×), and a total of 10 μg protein per sample replicate was assayed for luciferase activity according to the manufacturer's instructions for the Luciferase Assay System (Promega) using a TD 20/20 luminometer (Turner Designs). Experimental triplicates were averaged and the means from each independent experiment were analyzed by Student's t-test for statistical significance. Results are representative of three independent experiments."}, "[2]": {"test_system": "Il1β, Il6, Il10, Tnfα, Ptgs2, Tlr4 expression in SKH-1 mouse skin", "assay": "RT-qPCR of SSL-induced inflammatory genes in SKH-1 mouse skin", "type": "in vivo", "settings": "8 mM BMS-202+SSL vs vehicle+SSL; 24 hr", "method": "UVB exposure was performed on AP-1 luciferase reporter mice on the SKH-1 genetic background at a dose of 2.75 kJ/m2 using FS40 bulbs (Q-Lab Corporation) as described before with the modification that mice were imaged 24 hr post UVB exposure using whole body bioluminescence instead of 48 hr post UVB using ear punches. SSL irradiation of SKH-1 mice (Charles River Laboratories, strain code 477) at a dose of 90 kJ/m2 UVA/6 kJ/m2 UVB was performed using UVA-340 bulbs (Q-Lab Corporation) as described before.\nTotal RNA was isolated from SSL-treated mouse skin using the Qiagen RNeasy Mini Kit (Qiagen) according to the manufacturer's protocol. RNA integrity was checked by the RNA 6000 Nano chip kit using Agilent 2100 Bioanalyzer (Agilent Technologies). […] Then, 10 ng of cDNA was used for amplification of target genes by quantitative PCR using the following conditions: 95° C. for 10 min followed by 95° C. for 15 sec and 60° C. for 1 min for a total of 40 cycles performed in the ABI7500 Real-Time PCR System (Applied Biosystems). […] After amplification plots were generated, the Ct values (cycle number at which fluorescence reaches threshold) were recorded and quantified using the comparative (ΔΔCt) Ct method as described in the ABI Prism 7500 sequence detection system user guide. Statistical significance was calculated employing the Student's two-tailed t-test."}, "PD-L1": {"test_system": "PD-L1", "assay": "SSL-induced PD-L1 protein in primary epidermal keratinocytes (HEK), immunoblot", "type": "cell-based", "settings": "human primary keratinocytes (HEK cells)", "method": "For SSL treatment, UVA-340 bulbs (Q-Lab Corporation) were used. Before exposure, cells were washed with 1×PBS and then incubated in 4 mL PBS (with 0.01% MgCl2 and 0.01% CaCl2) during irradiation. Cells were exposed to 40 kJ/m2 UVA/2.68 kJ/m2 UVB, then rinsed once more with PBS prior to being placed back into DMEM with 1% FBS+penicillin/streptomycin and vehicle or BMS-202 (post-treatment) and incubated until harvest 24 hr later. Control cells underwent identical processing, except were held in the biosafety cabinet without UV exposure.\nAdult human epithelial keratinocytes (HEKs) were purchased from Thermo Scientific and maintained in EpiLife media on collagen-coated plates as per the vendor's instructions. Cells were treated with BMS-202 and SSL as described for HaCaT cells.\nCells were lysed in RIPA containing 1×HALT protease+phosphatase inhibitor cocktail (ThermoFisher Scientific) and 100 mM PMSF and protein concentrations were assessed using BCA assay (Bio-Rad). Mouse epidermal protein lysates for immunoblot analysis were derived from scraped frozen SKH-1 skins as described previously (Blohm-Mangone et al., 2018). Twenty μg of protein/lane were loaded onto 10% gels for electrophoresis/immunoblotting using established protocols. […]"}}}
{"compound": "COc1nc(OCc2cccc(-c3ccccc3)c2C)ccc1CNCCNC(C)=O", "note": "[BMS-202]", "values": [{"measurement": "UVB-induced AP-1 luciferase signal intensity", "setting": "[1]", "value": "significant inhibition"}, {"measurement": "UV-induced expression of Il1β, Il6, Il10, Tnfα, Ptgs2, Tlr4 (RT-qPCR)", "setting": "[2]", "value": "strong downregulation"}, {"measurement": "SSL-induced PD-L1 protein upregulation (immunoblot)", "setting": "PD-L1", "value": "reproducible"}]}
